The structures appear in SMILES notation. Some results are limits rather than exact numbers.

This data set deals with T1, hERG channel (Homo sapiens, UniProt Q12809).
T1 construct: host or cells: HEK293 stably expressing hERG
In words: Effect on hERG channel, whole-cell membrane clamp. It counts as cell-based. To be noted: for hERG current inhibition ratio: n=3. On the procedure:
Extracellular fluid: 140 mM NaCl, 3.5 mM KCl, 1 mM MgCl2, 2 mM CaCl2, 10 mM glucose, 10 mM HEPES, 1.25 mM NaH2PO4, pH=7.4 (adjusted by NaOH).
Intracellular fluid: 20 mM KCl, 115 mM K-aspartic acid, 1 mM MgCl2, 5 mM EGTA, 10 mM HEPES, 2 mM Na2-ATP, pH=7.2 (adjusted by KOH).
The stock solution of the compound of Example 8 of the present invention (30.26 mM solution in DMSO) was successively diluted with 10 mL of extracellular fluid to obtain 0.3 μM, 1 μM, 3 μM, […], and 30 μM solutions.
The HEK293 cell line stably expressing the hERG potassium channel (supplier Creacell, catalog number A-0302) was cultured in DMEM medium containing 10% fetal bovine serum and 0.8 mg/mL G418. The culture temperature was 37° C., and the carbon dioxide concentration was 5%.
Cell passage: The old medium was removed, and the cells were washed with PBS once. 1 mL of TrypLE™ expression solution was added, and the cells were incubated at 37° C. for 0.5 minutes. When the cells detached from the bottom of the dish, 5 mL of 37° C. pre-warmed complete medium (DMEM medium containing 10% fetal bovine serum and 0.8 mg/mL G418) was added. The cell suspension was gently pipetted to separate the aggregated cells. The cell suspension was transferred to a sterile centrifuge tube, and centrifuged at 1000 rpm for 5 minutes to collect the cells. Expansion or maintenance culture, the cells were seeded in a 6 cm cell culture dish, and each cell culture dish was seeded with 2.5×10^5 cells (final volume: 5 mL). In order to maintain the electrophysiological activity of the cell, the cell density must not exceed 80%. The cells were separated by TrypLE™ expression solution, and 3×10^3 cells were placed on a cover slide and cultured in a 24-well plate (final volume: 500 μL). Membrane clamp test was carried out after 18 hours.
The voltage stimulus protocol of the whole-cell membrane clamp for recording the whole-cell hERG potassium current is as follows. When a whole-cell sealing was formed, the membrane clamp was disposed at −80 mV. The clamp voltage was depolarized from −80 mV to +30 mV for 2.5 seconds, and then quickly maintained at −50 mV for 4 seconds, which can excite the tail current of the hERG channel. −50 mV was used for leakage current detection in the test. The data was collected repeatly every 10 seconds to observe the effect of the compound on hERG tail current. The test data was collected by EPC-10 amplifier (HEKA) and stored in PatchMaster (HEKA) software.
A capillary glass tube (BF150-86-10, Sutter Instruments) was prepared into a recording electrode using a microelectrode puller (P97, Sutter Instruments). Microelectrode manipulator (MP285, Sutter Instruments) was manipulated under an inverted microscope (IX71, Olympus) to contact the recording electrode to the cell, and suction was applied under negative pressure to form a […]. After forming the […], a rapid capacitance compensation was performed, then a negative pressure was applied to break the cell membrane and create a whole-cell recording mode. A slow capacitor compensation was performed, and the membrane capacitance and series resistance were recorded without leakage compensation.
When the hERG current of the whole-cell record was stable, administration was conducted. Each concentration was tested for 5 minutes (or until the current was stable) before testing the next concentration. Multiple concentrations were tested for each test compound. The cover slide seeded with the cell was placed in a recording bath of an inverted microscope. The test compound and the compound-free extracellular fluid flowed through the recording chamber by gravity perfusion from low concentrations to high concentrations to act on the cell. Liquid exchange was performed using a vacuum pump in the record. For each cell, the current detected in the compound-free extracellular fluid was used as the control. Three cells were repeatly tested independently. All electrophysiological experiments were carried out at room temperature.
For orientation: Block of hERG is tested as a sign of cardiac risk.

T1 sequence (Q12809 whole entry): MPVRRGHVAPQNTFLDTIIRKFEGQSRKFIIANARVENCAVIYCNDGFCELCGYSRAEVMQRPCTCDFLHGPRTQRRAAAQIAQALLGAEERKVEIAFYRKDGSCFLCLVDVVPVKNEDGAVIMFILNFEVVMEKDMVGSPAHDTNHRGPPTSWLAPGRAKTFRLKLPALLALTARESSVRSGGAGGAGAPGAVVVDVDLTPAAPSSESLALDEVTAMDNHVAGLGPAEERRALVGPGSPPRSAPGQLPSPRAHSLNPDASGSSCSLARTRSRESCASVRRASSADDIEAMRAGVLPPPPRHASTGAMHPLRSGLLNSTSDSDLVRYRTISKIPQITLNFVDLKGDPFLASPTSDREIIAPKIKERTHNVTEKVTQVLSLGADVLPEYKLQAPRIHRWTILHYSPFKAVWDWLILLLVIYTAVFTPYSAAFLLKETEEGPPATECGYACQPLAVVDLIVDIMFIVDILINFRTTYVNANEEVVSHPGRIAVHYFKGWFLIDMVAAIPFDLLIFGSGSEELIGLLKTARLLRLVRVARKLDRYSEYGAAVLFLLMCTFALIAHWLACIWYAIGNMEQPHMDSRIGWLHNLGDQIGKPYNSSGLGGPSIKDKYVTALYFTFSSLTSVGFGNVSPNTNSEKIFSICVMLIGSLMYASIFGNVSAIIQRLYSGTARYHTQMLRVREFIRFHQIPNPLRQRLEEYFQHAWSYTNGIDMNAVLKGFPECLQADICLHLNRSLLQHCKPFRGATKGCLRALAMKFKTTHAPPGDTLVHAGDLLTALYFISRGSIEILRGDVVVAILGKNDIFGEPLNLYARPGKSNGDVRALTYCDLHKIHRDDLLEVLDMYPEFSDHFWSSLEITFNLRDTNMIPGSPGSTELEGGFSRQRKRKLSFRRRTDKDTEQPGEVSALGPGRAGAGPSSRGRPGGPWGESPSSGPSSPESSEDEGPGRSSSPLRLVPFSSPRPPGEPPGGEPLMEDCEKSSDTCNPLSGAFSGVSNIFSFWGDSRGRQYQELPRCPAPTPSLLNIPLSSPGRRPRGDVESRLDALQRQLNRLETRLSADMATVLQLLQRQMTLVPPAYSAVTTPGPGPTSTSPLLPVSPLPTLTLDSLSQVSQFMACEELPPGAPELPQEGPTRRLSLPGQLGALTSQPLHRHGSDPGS

Consider `O=C(O)c1ccc(-c2nnc(N3[C@@H]4CC[C@H]3C[C@@H](OCc3c(-c5c(Cl)cccc5Cl)noc3C3CC3)C4)o2)cc1` [Example 8, 4-(5-((1R,3r,5S)-3-((5-cyclopropyl-3-(2,6-dichlorophenyl)isoxazol-4-yl)methoxy)-8-azabicyclo[3.2.1]octan-8-yl)-1,3,4-oxadiazol-2-yl)benzoic acid], for which the “hERG current inhibition ratio” value (0.3 μM, HEK293 cell line stably expressing hERG) is given as −2.37 ± 0.62%; the “hERG current inhibition ratio” value (1 μM, HEK293 cell line stably expressing hERG) was −3.09 ± 0.30%; the “hERG current inhibition ratio” value (3 μM, HEK293 cell line stably expressing hERG) is 0.48 ± 1.78%; the “hERG current inhibition ratio” value (10 μM, HEK293 cell line stably expressing hERG) was determined as 12.65 ± 2.25%; the “hERG current inhibition ratio” value (30 μM, HEK293 cell line stably expressing hERG) amounted to 31.67 ± 1.86%. Also, for the setting “HEK293 cell line stably expressing hERG, whole-cell membrane clamp, read-out: hERG semi-inhibiting concentration (IC50)”, the IC50 is greater than 30 µM. The “inhibitory effect on hERG channel (in words)” value (conclusion of Test Example 3) is recorded as “no inhibitory effect on hERG channel”.

(Values after patent US20220127258A1, “AROMATIC RING OR HETEROAROMATIC RING COMPOUNDS, PREPARATION METHOD THEREFOR AND MEDICAL USE THEREOF” (The National Institutes of Pharmaceutical R&D Co., Ltd., priority 2019, published 2022).)
